Calls of active or inactive are those of the source.
Experiments:
[1] = biological target: T1, Short transient receptor potential channel 4 (Mus musculus, UniProt Q9QUQ5); test: block of DAMGO-driven TRPC4 calcium entry – cell-based, HEK293 TRPC4/mu-opioid, Fluo-4 calcium, dose response (AID 434942); format: functional;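 also: potency of inhibitors blocking the TRPC4 calcium response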
T1 sequence (Q9QUQ5 whole entry): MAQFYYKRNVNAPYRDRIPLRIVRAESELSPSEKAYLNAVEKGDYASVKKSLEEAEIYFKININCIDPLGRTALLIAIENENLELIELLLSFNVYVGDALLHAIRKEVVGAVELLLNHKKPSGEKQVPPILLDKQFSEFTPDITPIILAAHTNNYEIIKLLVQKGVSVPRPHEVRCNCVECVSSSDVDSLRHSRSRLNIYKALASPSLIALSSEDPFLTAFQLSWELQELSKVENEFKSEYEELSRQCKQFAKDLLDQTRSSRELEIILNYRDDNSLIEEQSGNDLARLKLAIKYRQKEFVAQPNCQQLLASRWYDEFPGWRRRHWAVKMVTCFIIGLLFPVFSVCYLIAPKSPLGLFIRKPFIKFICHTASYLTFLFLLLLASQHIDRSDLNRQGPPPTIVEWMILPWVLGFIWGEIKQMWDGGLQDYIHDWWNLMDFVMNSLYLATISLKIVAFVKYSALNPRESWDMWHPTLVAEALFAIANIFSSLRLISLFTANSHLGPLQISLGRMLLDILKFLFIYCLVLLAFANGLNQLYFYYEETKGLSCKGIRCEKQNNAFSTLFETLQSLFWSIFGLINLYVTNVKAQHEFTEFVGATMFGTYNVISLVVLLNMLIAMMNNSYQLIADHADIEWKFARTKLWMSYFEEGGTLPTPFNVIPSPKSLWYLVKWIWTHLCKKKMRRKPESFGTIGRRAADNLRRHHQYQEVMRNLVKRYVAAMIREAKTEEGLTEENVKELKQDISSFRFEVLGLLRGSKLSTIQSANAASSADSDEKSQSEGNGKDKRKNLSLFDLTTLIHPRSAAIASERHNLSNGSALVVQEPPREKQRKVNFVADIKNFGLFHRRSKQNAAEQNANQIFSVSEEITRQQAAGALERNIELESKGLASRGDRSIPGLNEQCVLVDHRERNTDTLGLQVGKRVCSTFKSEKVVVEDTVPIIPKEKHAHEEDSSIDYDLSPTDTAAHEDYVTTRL

[2] = biological target: Glyceraldehyde-3-phosphate dehydrogenase (Homo sapiens, UniProt P04406)
Chain of Glyceraldehyde-3-phosphate dehydrogenase (P04406 whole entry): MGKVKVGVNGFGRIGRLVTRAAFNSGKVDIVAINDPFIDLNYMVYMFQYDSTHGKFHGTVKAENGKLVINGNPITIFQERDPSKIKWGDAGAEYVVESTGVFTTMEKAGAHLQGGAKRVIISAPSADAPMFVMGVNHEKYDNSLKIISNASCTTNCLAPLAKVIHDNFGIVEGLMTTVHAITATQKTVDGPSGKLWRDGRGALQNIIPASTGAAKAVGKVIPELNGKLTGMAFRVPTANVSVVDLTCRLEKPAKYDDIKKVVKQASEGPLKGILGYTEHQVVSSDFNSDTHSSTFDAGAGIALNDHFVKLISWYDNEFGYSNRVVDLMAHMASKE

[3] = cells; format: functional, cell-based
[4] = cells; format: functional, cell-based; remark: listed apart in the source
[5] = system: HEK293; test: NOD2 signaling inhibitors in MDP-stimulated cells, cell-based, uHTS, luminescence (AID 2001); format: functional; conditions: Homo sapiens
[6] = system: HEK293; test: cells; format: functional, cell-based; conditions: Homo sapiens
[7] = system: HEK293; test: inhibition of NOD1-driven NF-kB reporter – cell-based, luminescence, uHTS, primary screen (AID 1578); format: functional; conditions: Homo sapiens
[8] = system: HEK293; test: cells; format: functional, cell-based; conditions: Homo sapiens; remark: listed apart in the source
[9] = system: HEK293; test: cells; format: functional, cell-based; conditions: Homo sapiens; remark: listed apart in the source
[10] = biological target: Nucleotide-binding oligomerization domain-containing protein 2 (Homo sapiens, UniProt Q9HC29); test: inhibition of NOD2-driven NF-kB reporter – cell-based, luminescence, uHTS, HEK293 (AID 1566); format: functional
Chain of Nucleotide-binding oligomerization domain-containing protein 2 (Q9HC29 whole entry, the tested form may be a part): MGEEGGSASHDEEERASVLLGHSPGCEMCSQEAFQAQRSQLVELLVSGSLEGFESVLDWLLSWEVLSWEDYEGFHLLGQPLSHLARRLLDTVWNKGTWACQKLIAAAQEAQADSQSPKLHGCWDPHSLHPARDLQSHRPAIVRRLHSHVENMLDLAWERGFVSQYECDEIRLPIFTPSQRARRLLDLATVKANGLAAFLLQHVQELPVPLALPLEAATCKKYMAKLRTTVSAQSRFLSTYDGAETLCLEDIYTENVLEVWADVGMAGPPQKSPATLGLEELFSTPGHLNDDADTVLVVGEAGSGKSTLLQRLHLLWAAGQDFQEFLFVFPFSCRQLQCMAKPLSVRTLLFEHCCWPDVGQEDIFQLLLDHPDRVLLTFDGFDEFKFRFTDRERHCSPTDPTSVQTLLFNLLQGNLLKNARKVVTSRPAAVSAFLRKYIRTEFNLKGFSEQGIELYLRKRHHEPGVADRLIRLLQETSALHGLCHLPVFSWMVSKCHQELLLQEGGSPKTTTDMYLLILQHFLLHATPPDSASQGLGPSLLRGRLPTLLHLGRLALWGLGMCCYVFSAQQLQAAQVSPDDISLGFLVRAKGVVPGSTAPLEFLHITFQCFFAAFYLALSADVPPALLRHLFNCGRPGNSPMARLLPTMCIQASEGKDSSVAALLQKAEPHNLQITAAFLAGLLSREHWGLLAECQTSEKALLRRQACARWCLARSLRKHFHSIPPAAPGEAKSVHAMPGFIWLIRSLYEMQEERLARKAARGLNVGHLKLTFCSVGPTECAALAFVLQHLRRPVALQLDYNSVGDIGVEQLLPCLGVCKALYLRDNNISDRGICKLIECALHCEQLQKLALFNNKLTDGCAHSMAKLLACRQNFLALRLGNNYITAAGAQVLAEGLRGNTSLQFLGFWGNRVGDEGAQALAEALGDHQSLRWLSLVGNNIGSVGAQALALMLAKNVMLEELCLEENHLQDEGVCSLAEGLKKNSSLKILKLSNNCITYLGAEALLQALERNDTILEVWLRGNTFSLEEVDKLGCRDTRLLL

[11] = biological target: T2, Insulin-degrading enzyme (Homo sapiens, UniProt P14735); test: Dose Response: Fluorescence polarization-based cell-based high throughput dose response assay for inhibitors of insulin-degrading enzyme (IDE). [Related pubchem assays: 434962 (Primary screen (IDE inhibitors in singlicate)), 449730 (Counterscreen (Cytotoxicity in triplicate)), 435028 (Confirmation (IDE inhibitors in triplicate)), 434984 (Summary …; format: functional
T2 sequence (P14735 whole entry): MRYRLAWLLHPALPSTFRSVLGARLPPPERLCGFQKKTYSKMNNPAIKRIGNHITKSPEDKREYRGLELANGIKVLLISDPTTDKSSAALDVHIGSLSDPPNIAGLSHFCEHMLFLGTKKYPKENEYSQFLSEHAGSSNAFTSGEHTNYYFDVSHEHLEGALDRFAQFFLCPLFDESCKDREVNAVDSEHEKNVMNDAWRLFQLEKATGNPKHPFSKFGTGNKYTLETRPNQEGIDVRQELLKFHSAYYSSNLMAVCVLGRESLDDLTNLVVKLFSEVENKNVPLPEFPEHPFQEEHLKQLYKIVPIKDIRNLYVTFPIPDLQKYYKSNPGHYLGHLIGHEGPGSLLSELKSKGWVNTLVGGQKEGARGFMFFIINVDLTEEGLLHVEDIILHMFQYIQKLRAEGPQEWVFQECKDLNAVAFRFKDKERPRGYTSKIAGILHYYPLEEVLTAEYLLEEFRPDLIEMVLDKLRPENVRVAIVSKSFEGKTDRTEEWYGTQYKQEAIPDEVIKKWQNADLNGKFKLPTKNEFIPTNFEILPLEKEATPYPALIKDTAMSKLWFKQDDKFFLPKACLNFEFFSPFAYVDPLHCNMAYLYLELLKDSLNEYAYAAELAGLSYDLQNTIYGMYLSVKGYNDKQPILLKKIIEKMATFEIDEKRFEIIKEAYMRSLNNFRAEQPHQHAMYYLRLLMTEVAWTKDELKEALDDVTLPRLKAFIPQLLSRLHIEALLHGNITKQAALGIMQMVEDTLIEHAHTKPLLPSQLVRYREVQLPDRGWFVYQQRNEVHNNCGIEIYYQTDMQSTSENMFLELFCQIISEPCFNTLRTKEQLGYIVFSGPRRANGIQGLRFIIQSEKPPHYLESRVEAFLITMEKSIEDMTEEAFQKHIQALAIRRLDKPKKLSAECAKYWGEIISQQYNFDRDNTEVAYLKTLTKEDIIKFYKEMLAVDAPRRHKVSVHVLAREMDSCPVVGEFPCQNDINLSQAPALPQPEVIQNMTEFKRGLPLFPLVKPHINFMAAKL

[12] = Counterscreen for IDE inhibitors: Luminescence-based cell-based high throughput dose response assay to identify compounds that are cytotoxic to HEK cells. [Related pubchem assays: 434962 (Primary screen (IDE inhibitors in singlicate)), 449730 (Counterscreen (Cytotoxicity in triplicate)), 435028 (Confirmation (IDE inhibitors in triplicate)) …; format: functional; conditions: HEK293
[13] = biological target: FAD-linked sulfhydryl oxidase ALR (Homo sapiens, UniProt P55789); test: ALR-catalysed DTT oxidation blockers – biochemical, H2O2 detection, luminescence, cherry-pick, dose response (AID 493248)
Chain of FAD-linked sulfhydryl oxidase ALR (P55789 whole entry): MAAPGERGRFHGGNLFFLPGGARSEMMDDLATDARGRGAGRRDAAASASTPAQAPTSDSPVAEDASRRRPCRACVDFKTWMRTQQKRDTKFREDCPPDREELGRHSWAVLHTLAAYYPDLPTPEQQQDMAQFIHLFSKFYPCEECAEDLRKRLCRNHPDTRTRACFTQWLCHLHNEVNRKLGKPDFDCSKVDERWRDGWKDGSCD

[14] = biological target: T3, Heat shock factor protein 1 (Mus musculus, UniProt P38532); test: decrease of HSF1-responsive luciferase luminescence – cell-based, NIH3T3, dose retest, confirmation (AID 2382); format: functional;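 also: NIH3T3 fibroblasts with HSF1-driven luciferase reporter stressed by proteasome inhibitor MG132; luminescence from HSF1-driven luciferase expression after 8 hours of MG132 stress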
T3 sequence (P38532 whole entry): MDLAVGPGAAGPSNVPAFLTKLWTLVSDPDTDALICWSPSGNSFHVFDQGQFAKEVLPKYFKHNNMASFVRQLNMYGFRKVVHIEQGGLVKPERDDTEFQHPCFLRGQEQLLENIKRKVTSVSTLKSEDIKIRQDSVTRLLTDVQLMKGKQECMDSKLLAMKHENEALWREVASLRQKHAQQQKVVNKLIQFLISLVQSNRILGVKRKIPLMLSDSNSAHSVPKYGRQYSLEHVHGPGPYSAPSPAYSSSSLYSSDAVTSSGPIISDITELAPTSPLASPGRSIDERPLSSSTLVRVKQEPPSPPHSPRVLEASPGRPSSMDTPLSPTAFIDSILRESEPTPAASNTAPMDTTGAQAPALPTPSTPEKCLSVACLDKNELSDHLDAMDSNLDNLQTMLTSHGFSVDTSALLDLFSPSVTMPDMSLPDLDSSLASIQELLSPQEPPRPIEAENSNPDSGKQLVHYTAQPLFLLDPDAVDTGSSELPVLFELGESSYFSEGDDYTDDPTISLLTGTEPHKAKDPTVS

[15] = biological target: T4, Microphthalmia-associated transcription factor (Homo sapiens, UniProt O75030); test: reducers of TRPM1 reporter luminescence, concentration series – cell-based, SK-MEL-5, cherry-picked, set 3, MITF inhibitor project, dose response (AID 493073); format: functional;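 also: SK-MEL-5 melanoma cells with luciferase driven by the MITF target TRPM1 promoter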
T4 sequence (O75030 whole entry): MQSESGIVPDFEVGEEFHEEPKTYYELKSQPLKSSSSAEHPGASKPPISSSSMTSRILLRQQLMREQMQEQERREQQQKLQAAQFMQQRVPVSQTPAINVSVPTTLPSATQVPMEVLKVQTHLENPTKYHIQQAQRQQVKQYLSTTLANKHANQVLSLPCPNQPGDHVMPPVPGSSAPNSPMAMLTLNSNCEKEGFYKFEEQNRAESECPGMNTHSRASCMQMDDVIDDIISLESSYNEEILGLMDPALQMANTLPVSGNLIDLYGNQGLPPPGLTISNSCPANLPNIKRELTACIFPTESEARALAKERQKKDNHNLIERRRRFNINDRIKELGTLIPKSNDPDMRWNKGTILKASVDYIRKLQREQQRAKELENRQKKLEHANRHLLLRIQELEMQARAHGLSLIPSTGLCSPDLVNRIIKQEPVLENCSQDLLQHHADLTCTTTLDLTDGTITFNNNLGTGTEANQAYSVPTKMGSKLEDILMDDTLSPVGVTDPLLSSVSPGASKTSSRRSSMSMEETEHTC

[16] = alpha-synuclein stem-loop luciferase translation blockers – H4 neuroglioma cells, luminescence, confirmation (AID 1988); format: functional, cell-based
[17] = luciferase reporter signal suppression in cells – H4 neuroglioma cells, luminescence, dose response (AID 1990); format: functional, cell-based

Row | Structure (SMILES) | IC50 [5] | IC50 [6] | EC50 [7] | IC50 [8] | IC50 [9] | EC50 [10] | also measured
1 | CCCn1c(=O)c2ccccc2n2c(SCCOc3ccc(C)cc3)nnc12 | – | – | – | – | – | – | EC50 [1]: 1.68 µM (active)
2 | O=C(O)c1ccc2cccc(O)c2n1 | – | – | – | – | – | – | IC50 [2]: > 100 µM (not active); EC50 [3]: > 350 µM (not active); EC50 [4]: > 350 µM (not active)
3 | COc1ccccc1-c1nc(C#N)c(N2CCN(c3cccc(Cl)c3)CC2)o1 | 17.4 µM (inactive) | 18.5 µM (active) | 8.65 µM (active) | > 20 µM (inactive) | > 20 µM (inactive) | 11.2 µM (active) | –
4 | Cc1ccc(NC(=O)Cc2cc(C(=O)O)c3ccccc3n2)c(C)c1 | 8.76 µM (inactive) | 11.7 µM (active) | 7.04 µM (active) | > 20 µM (inactive) | > 20 µM (inactive) | 6.77 µM (active) | –
5 | COCC(C)n1c(C)cc(C(=O)COc2ccc(C)nc2[N+](=O)[O-])c1C (stereo unspecified) | > 20 µM (inactive) | 6.88 µM (active) | > 20 µM (inactive) | > 20 µM (inactive) | > 20 µM (inactive) | 16.7 µM (active) | –
6 | O=C(O)c1ccc(OCc2ccc(C(=O)O)o2)cc1 | – | – | – | – | – | – | IC50 [2]: > 100 µM (not active)
7 | CC1CCc2c(sc3ncnc(SCC(=O)Nc4ccc(C(=O)O)cc4)c23)C1 (stereo unspecified) | – | – | – | – | – | – | EC50 [1]: 6.68 µM (active)
8 | Cc1ccc(-c2cc(C(=O)Nc3ccc(S(=O)(=O)Nc4ncccn4)cc3)[nH]n2)c(O)c1C | – | – | – | – | – | – | IC50 [11]: 17.7 µM (not active); IC50 [12]: > 55.7 µM (not active)
9 | O=C(Nc1ccc(Cl)cn1)c1ccc(Br)c(S(=O)(=O)N2CCCCC2)c1 | 9.77 µM (active) | 7.73 µM (active) | 9.56 µM (active) | 18.7 µM (active) | > 20 µM (inactive) | > 20 µM (inactive) | –
10 | CN(C)c1ccc(/C=C2\SC(=O)N(CCc3nnc(N)s3)C2=O)cc1 | – | – | – | – | – | – | IC50 [11]: > 55.9 µM (not active); AC50 [13]: 1.87 µM (active); EC50 [14]: 6.52 µM (inconclusive); IC50 [12]: 47.8 µM (not active); AC50 [15]: 2.54 µM (active); EC50 [16]: 4.74 µM (active); EC50 [17]: 8.39 µM (inconclusive)
11 | CCOC(=O)C1C(=O)NC(SCC(N)=O)=C(C#N)C1c1ccccc1OCC (stereo unspecified) | – | – | – | – | – | – | IC50 [11]: > 6.21 µM (active); IC50 [12]: > 55.7 µM (not active)

From ChEMBL document CHEMBL1201862, “PubChem BioAssay data set” (2004)
